Nine compounds from patent US11247984B2, “Uracil containing compounds” (CV6 Therapeutics (NI) Limited, priority 2017, dated 2022) can be followed below.

The subject of experiment [1] is colorectal (HCT116 and SW620) cell line models. The experiment is described as follows: MTS growth inhibition assay. The format is cell-based. The settings on record: 5-FU between 0 and 100 μmol/L. The protocol:
The Cell Titer AQueous MTS assay (Promega) is carried out according to the manufacturers guidelines. […] The combination effect is determined by the combination index (CI) method utilizing Calcusyn software (Biosoft, Ferguson, Mo.). Fraction affected (FA) is calculated from the percent growth inhibition: FA=[…]. CI values <1, synergism; 1-1.2, additive and >1.2, antagonism.
Test compounds are evaluated for their antitumor activity in colorectal cancer cells using the MTS growth inhibition assay. HCT116 and SW620 cells are exposed to increasing concentrations of each agent for 72 hours and growth inhibition is directly compared to vehicle-treated controls. The NSCLC cell lines A549 and H1299 are exposed to increasing concentrations of each agent for 72 hours and growth inhibition is directly compared to vehicle-treated controls.
MTS growth inhibition assays are performed to evaluate the effectiveness of the test compounds alone and in combination with the fluoropyrimidine thymidylate synthase (TS) inhibitor 5-fluorouracil (5-FU) at inhibiting the growth of colorectal (HCT116 and SW620) cell line models. […] Simultaneous treatment with increasing concentrations of 5-FU and a test compound at fixed concentrations of 25 μmol/L is determined.
Background: Tetrazolium assays rely on reduction of a dye to a coloured formazan, in cell work by metabolically active cells.

Experiment [2] concerns the target T1, recombinant human deoxyuridine nucleotidohydrolase (dUTPase) (Homo sapiens, UniProt P33316).
T1 construct: made in house
T1 sequence (P33316 1-164 isoform P33316-2): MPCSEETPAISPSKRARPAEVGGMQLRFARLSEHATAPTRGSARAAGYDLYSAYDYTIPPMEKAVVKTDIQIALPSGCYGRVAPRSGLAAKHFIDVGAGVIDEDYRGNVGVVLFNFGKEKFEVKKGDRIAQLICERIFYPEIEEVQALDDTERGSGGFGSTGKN
The experiment is described as follows: fluorescence-based dUTPase inhibition assay. The format is biochemical. The settings on record: for % relative inhibition vs. positive control: mean across three concentrations, typically 100, 50 and 25 μmol/L, compared to in-run positive control. An excerpt:
Recombinant human deoxyuridine nucleotidohydrolase (dUTPase) is expressed and purified as described in Ladner R D, Carr S A, Huddleston M J, McNulty D E, Caradonna S J. J Biol Chem. 1996 Mar. 29; 271(13):7752-7. All drugs stocks are aliquoted and diluted as appropriate prior to use. The oligonucelotide primer, templates and fluorophore- and quencher-labeled detection probes are synthesized by Integrated DNA Technologies (Coralville, Iowa), subjected to polyacrylamide gel electrophoresis purification and reconstituted in Omnipur sterile nuclease-free water (EMD Chemicals USA, Gibbstown N.J.) at a stock concentration of 100 μmol/L. The two non-emissive (dark) quenching molecules incorporated into the detection probes include the Iowa black fluorescein quencher (IBFQ; absorption max 531 nm) and ZEN (non-abbreviation; absorption max 532 nm). The fluorescent label utilized is 6-FAM (5′-carboxyfluorescein; excitation max.=494 nm, emission max.=520 nm). Probes are further diluted to a working stock of 10 μmol/L and aliquoted to avoid repeated freeze/thaw cycles. AmpliTaq Gold DNA Polymerase, GeneAmp 10×PCR Buffer 2, MgCl2 and MicroAmp Optical 96-well Reaction Plates are purchased from Applied Biosystems (Carlsbad, Calif.). dNTPs are purchased individually at stock concentrations of 100 mmol/L from New England Biolabs at HPLC-certified >99% purity (Ipswich, Mass.).
Reaction mixtures contained primer, probe and template at an equimolar final concentration of 0.4 μmol/L. Magnesium chloride (MgCl2) is included at a final concentration of 2 mmol/L. Non-limiting dNTPs are included in the reaction mix in excess at a final concentration of 100 μmol/L (dUTP/dTTP is excluded). AmpliTaq Gold DNA polymerase is added at 0.875 U/reaction, 2.5 μl of 10×PCR buffer 2 added and nuclease-free ddH2O added to a final reaction volume of 25 μl. For dUTP inhibition analysis, the volume of ddH2O is further modified to accommodate an additional 1 μl of dUTPase (10 ng/μt) and 1 μl of inhibitor or DMSO control. Thermal profiling and fluorescence detection is performed using a customized thermal program on board a Roche Lightcycler LC480 Instrument II. For analysis of dNTPs, the thermal profile consisted of an 8 min 37° C. step followed by a 10 min 95° C. step to ‘hot-start’ the Taq polymerase and a primer extension time of up to 30 min at 60° C. Raw fluorescence spectra for 6-FAM is measured at specified time intervals to follow assay progression on board a Roche LightCycler 480 Software Version 1.5 and exported and analyzed in Microsoft Excel (Microsoft, Redmond Wash.) and Prism (GraphPad Software, La Jolla Calif.). Fluorescence values for blank reactions (limiting dNTP omitted) are subtracted to give normalized fluorescence units (NFU) to account for background fluorescence.
Test compounds are screened in a fluorescence-based assay. The assay employs a DNA polymerase-based approach utilizing an oligonucleotide template with 3 distinct regions: a 3′ primer binding region, a mid-template dUTP/thymidine triphosphate (TTP) detection region and a 5′ 6-[…] (FAM)-labeled probe binding region that incorporates a black hole quenching moiety. During the reaction, the probe and primer hybridize to the oligonucleotide template to form the template:primer:probe complex. When Taq polymerase binds to the primer in the TPP complex and dUTP is present, successful extension of the nascent strand occurs and the inherent 5′ to 3′ exonuclease activity of Taq polymerase cleaves and displaces the 6-FAM-labeled probe in a 5′ to 3′ direction, releasing the 6-FAM fluorophore from its proximity to the […]. This displacement effectively disrupts the Forster resonance energy transfer (FRET) and the resulting fluorescence detected upon excitation is directly proportional to the amount of the dUTP available in the assay for incorporation. […]

The test system of experiment [3] is colorectal (HCT116), breast (MCF-7) and non-small cell lung (H1299, A549, H358 and H460) cell line models. The experiment is described as follows: colony forming assay. The experiment is classed as cell-based. The settings on record: FUdR between 0.5 and 2.5 μmol/L; all cell lines evaluated. The protocol: Colony forming assay showing the ability of colon (SW620, HCT116), non-small cell lung (A549, H460, H1299 and H358) and breast (MCF7) cancer cells to survive and proliferate following transient 24 hour exposure to test compounds, FUdR and combinations are determined. Specifically, cells are seeded at densities between 50 and 100 cells/well in 24-well plates. Twenty-four hours later, cells are treated with increasing concentrations of a rtest compound, a fixed dose of FUdR and combinations of these. After 24 hours, drug is removed, cells are rinsed and allowed to outgrow for 10-14 days. At the conclusion of the outgrowth, cells are fixed in 60% ice cold methanol and stained with 0.1% crystal violet, scanned and counted. Data is presented as percentage of untreated controls (mean±SD). Fraction affected and combination indexes are calculated according to the method of Chou and Talalay where <1 is indicative of a synergistic drug interaction.
Colony forming assays are performed to evaluate the effectiveness of test compounds alone and in combination with the fluoropyrimidine thymidylate synthase (TS) inhibitor fluorodeoxyuridine (FUdR) at reducing cancer cell viability in colorectal (HCT116), breast (MCF-7) and non-small cell lung (H1299, A549, H358 and H460) cell line models. […]

With `O=c1[nH]cc(F)c(=O)[nH]1` [Example 5-FU, 5-fluorouracil], the growth inhibition entry in experiment [1] is “dose-dependent increases in growth inhibition”.

Consider `CC(C)[C@@H](NS(=O)(=O)CC/C=C/CN1CCC(=O)NC1=O)c1ccc(F)c(OCC2CC2)c1` [Example 79, (R,E)-N-(1-(3-(cyclopropylmethoxy)-4-fluorophenyl)-2-methylpropyl)-5-(2,4-dioxotetrahydropyrimidin-1(2H)-yl)pent-3-ene-1-sulfonamide], for which the “% relative inhibition vs. positive control” value in experiment [2] was 145%.

For `CC(C)[C@@H](NS(=O)(=O)CCCCCN1CCC(=O)NC1=O)c1ccc(F)c(OCC2CC2)c1` [Example 80, (R)—N-(1-(3-(cyclopropylmethoxy)-4-fluorophenyl)-2-methylpropyl)-5-(2,4-dioxotetrahydropyrimidin-1(2H)-yl)pentane-1-sulfonamide], the “% relative inhibition vs. positive control” value in experiment [2] was 103%.

Take `CC(C)COc1cc(C(C)(C)NS(=O)(=O)CC/C=C/CN2CCC(=O)NC2=O)ccc1F` [Example 81, (E)-5-(2,4-dioxotetrahydropyrimidin-1(2H)-yl)-N-(2-(4-fluoro-3-isobutoxyphenyl)propan-2-yl)pent-3-ene-1-sulfonamide]: the “% relative inhibition vs. positive control” value in experiment [2] is on record as 80%.

`C[C@@H](NS(=O)(=O)CCCOCN1CCC(=O)NC1=O)c1cccc(OCC2CC2)c1` [Example 82, (R)—N-(1-(3-(cyclopropylmethoxy)phenyl)ethyl)-3-((2,4-dioxotetrahydropyrimidin-1(2H)-yl)methoxy)propane-1-sulfonamide]: in experiment [2], the “% relative inhibition vs. positive control” value was determined as 174%.

Regarding `CC[C@@H](NS(=O)(=O)CCCOCN1CCC(=O)NC1=O)c1ccc(F)c(OCC2CC2)c1` [Example 83, (R)—N-(1-(3-(cyclopropylmethoxy)-4-fluorophenyl)propyl)-3-((2,4-dioxotetrahydropyrimidin-1(2H)-yl)methoxy)propane-1-sulfonamide], the “% relative inhibition vs. positive control” value in experiment [2] worked out at 166%. For `C[C@@H](NS(=O)(=O)CCCCCn1ccc(=O)[nH]c1=O)c1ccc(F)c(OCC2CC2)c1` [Example 84, (R)—N-(1-(3-(cyclopropylmethoxy)-4-fluorophenyl)ethyl)-5-(2,4-dioxo-3,4-dihydropyrimidin-1(2H)-yl)pentane-1-sulfonamide], in experiment [2], the “% relative inhibition vs. positive control” value amounted to 214%. For the same compound, the IC50 (in general, the concentration at which inhibition is half-maximal) in experiment [2] (recombinant dUTPase, 8 min at 37° C.) was 300 nM.

As to `C[C@H](NS(=O)(=O)CCCCCn1ccc(=O)[nH]c1=O)c1ccc(F)c(OCC2CC2)c1` [Example 86, (S)—N-(1-(3-(cyclopropylmethoxy)-4-fluorophenyl)ethyl)-5-(2,4-dioxo-3,4-dihydropyrimidin-1(2H)-yl)pentane-1-sulfonamide], in experiment [2], the “% relative inhibition vs. positive control” value is 54%. For the compound `O=c1[nH]c(=O)n([C@H]2C[C@H](O)[C@@H](CO)O2)cc1F` [FUdR, fluorodeoxyuridine], in experiment [3], the colonies formed result was “dose-dependent decreases in colonies formed”.
